The values below come from PubChem BioAssay (NCI).

Among the test systems are UO-31 renal; IGROV1 ovarian; OVCAR-5 ovarian; SR leukemia; HCT-116 colon; CCRF-CEM leukemia; MALME-3M melanoma; MCF7 breast; HOP-62 NSCLC; K-562 leukemia.
Holding throughout (assay): NCI anticancer screen, dose series, 48 h

Values joined by “and” are separate entries in the source; they are usually repeats but may differ in a detail not shown here. Identical values can stand only once.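 Five compound concentrations were applied to cells in 96-well plates for 48 hours; endpoints were derived by simple linear interpolation of the resulting dose-response curve. GI50 is the concentration that inhibits growth by half. At the TGI there is no net growth.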

Regarding `Cc1ccccc1C(C(=O)NC1CCCCC1)N(C(=O)CNc1ccc(C#N)cc1)c1cccc(F)c1` (stereo not drawn), the GI50 in the test on UO-31 renal was above 93.5 µM; with IGROV1 ovarian, 25 µM; with OVCAR-5 ovarian it was 46.6 µM; in the test on SR leukemia it was 16.9 µM; in the test on HCT-116 colon, 13.6 µM; with CCRF-CEM leukemia, above 100 µM. In addition, the GI50 in the test on MALME-3M melanoma was 15.7 µM; with MCF7 breast it was 49.8 µM; in the test with HOP-62 NSCLC, 3.51 µM; in the test with K-562 leukemia it was above 95.7 µM. Besides, the TGI was above 100 µM with UO-31 renal; above 100 µM in the test on IGROV1 ovarian; above 100 µM in the test with OVCAR-5 ovarian; 92.2 µM in the test on SR leukemia; above 100 µM in the test with HCT-116 colon; above 100 µM in the test with CCRF-CEM leukemia. For the same molecule, the TGI with MALME-3M melanoma was above 91.3 µM; in the test on MCF7 breast, above 100 µM; in the test with HOP-62 NSCLC, 14.4 µM; with K-562 leukemia it was above 100 µM.
For the molecule `COc1ccc2c(c1)C(c1cc(OC)c3c(c1)OCO3)C1=C(COC1=O)N2` (stereo not drawn), the GI50 was 5.05 µM in the test on UO-31 renal; 0.687 µM in the test on IGROV1 ovarian; 0.629 µM in the test with OVCAR-5 ovarian; 0.183 µM in the test with SR leukemia; 0.417 µM in the test with HCT-116 colon; 0.382 µM with CCRF-CEM leukemia. In addition, the GI50 in the test with MCF7 breast is 0.261 µM; with HOP-62 NSCLC, 0.397 µM; in the test on K-562 leukemia, 0.264 µM. In addition, the TGI in the test with UO-31 renal was above 100 µM; in the test on IGROV1 ovarian, above 84.5 µM; in the test with OVCAR-5 ovarian it was above 100 µM; in the test with SR leukemia, above 100 µM; with HCT-116 colon it was above 34.8 µM; in the test on CCRF-CEM leukemia, above 100 µM. Moreover, the TGI in the test with MALME-3M melanoma is above 100 µM; with MCF7 breast, 27.3 µM; in the test on HOP-62 NSCLC it was above 47.5 µM; in the test with K-562 leukemia, above 100 µM.
On to `O=c1oc2ccc(Br)cc2c(=O)n1-c1ccc(Cl)cc1F`, for which the GI50 with UO-31 renal was 0.349 µM; with IGROV1 ovarian it was 0.61 µM; in the test with OVCAR-5 ovarian, 3.84 µM; in the test on SR leukemia, 0.798 µM; in the test with HCT-116 colon it was 1.14 µM; in the test on CCRF-CEM leukemia, 2.38 µM. In addition, the GI50 is 0.664 µM in the test with MALME-3M melanoma, 1.66 µM in the test with MCF7 breast, 2.17 µM with HOP-62 NSCLC and 0.646 µM in the test on K-562 leukemia. The TGI was 3.03 µM in the test with UO-31 renal; 17.2 µM with IGROV1 ovarian; above 100 µM in the test on OVCAR-5 ovarian; above 100 µM in the test with SR leukemia; 4.33 µM in the test on HCT-116 colon; 11.7 µM with CCRF-CEM leukemia. Also, the TGI in the test with MALME-3M melanoma was 3.32 µM; with MCF7 breast it was 10.1 µM; with HOP-62 NSCLC, 9.13 µM; with K-562 leukemia, above 100 µM.
`CN(C)CCOc1ccccc1NC1=C(Cl)C(=O)C(Nc2ccccc2OCCN(C)C)=C(Cl)C1=O`: the GI50 is 0.735 µM with UO-31 renal; 0.636 µM in the test with IGROV1 ovarian; 10.2 µM with OVCAR-5 ovarian; 5.12 µM with SR leukemia; 0.518 µM with HCT-116 colon; 0.966 µM with CCRF-CEM leukemia. Also, the GI50 in the test on MALME-3M melanoma is 3.31 µM; with MCF7 breast, 0.51 µM; in the test with HOP-62 NSCLC it was 39.1 µM; with K-562 leukemia, 2.26 µM. The TGI in the test with UO-31 renal is 2.22 µM; in the test with IGROV1 ovarian, 1.48 µM; in the test with OVCAR-5 ovarian, above 38.6 µM; with SR leukemia, above 100 µM; with HCT-116 colon it was 1.01 µM; with MALME-3M melanoma it was 12.8 µM. The TGI is 1.18 µM in the test on MCF7 breast, above 100 µM in the test on HOP-62 NSCLC and 5.41 µM with K-562 leukemia.
For `COc1ccc(-c2cn(-c3cc(OC)c(OC)c(OC)c3)c(=O)[nH]2)cc1OC`, the GI50 in the test with UO-31 renal, with IGROV1 ovarian, with OVCAR-5 ovarian, with SR leukemia, in the test with HCT-116 colon and with CCRF-CEM leukemia was above 100 µM in each case. In addition, the GI50 in the test with MALME-3M melanoma, in the test on MCF7 breast, in the test with HOP-62 NSCLC and in the test on K-562 leukemia was above 100 µM each time. Also, the TGI with UO-31 renal, with IGROV1 ovarian, with OVCAR-5 ovarian, in the test on SR leukemia, in the test with HCT-116 colon and with CCRF-CEM leukemia was above 100 µM each time. In addition, the TGI with MALME-3M melanoma, in the test with MCF7 breast, in the test on HOP-62 NSCLC and in the test with K-562 leukemia was above 100 µM each time.
Turning to `COC(=O)[C@@H](C)C[C@H](Cc1ccccc1)NC(=O)c1csc([C@@H](C[C@H](C(C)C)N(C)C(=O)[C@@H](NC(=O)[C@H]2CCCN2C)C2CC2)OC(C)=O)n1`, the TGI in the test on UO-31 renal, with IGROV1 ovarian, with OVCAR-5 ovarian, in the test with SR leukemia, in the test on CCRF-CEM leukemia and in the test with MALME-3M melanoma was above 25 µM throughout. The TGI in the test on MCF7 breast, in the test on HOP-62 NSCLC and with K-562 leukemia was above 25 µM throughout. Further, the GI50 in the test with IGROV1 ovarian is 0.000823 µM and 0.0025 µM; with HCT-116 colon, 0.000389 µM; in the test on CCRF-CEM leukemia it was 0.000586 µM and 0.0025 µM; with MALME-3M melanoma it was 4.41 µM; in the test on HOP-62 NSCLC, 0.00255 µM and 0.0025 µM; in the test on K-562 leukemia it was 0.000352 µM and 0.0025 µM.
